Experimental data from ChEMBL document CHEMBL4507304, “Data for DCP probe TP-021” (2021).

Columns and labels:
[1] = biological target: NUAK family SNF1-like kinase 1 (Homo sapiens) (UniProt O60285); details: Compound concentration 1000.0 nM
[2] = biological target: Mitogen-activated protein kinase kinase kinase 5 (Homo sapiens) (UniProt Q99683); details: Compound concentration 1000.0 nM
[3] = biological target: Calcium/calmodulin-dependent protein kinase type 1 (Homo sapiens) (UniProt Q14012); details: Compound concentration 1000.0 nM
[4] = biological target: Cyclin-dependent kinase 4 (Homo sapiens) (UniProt P11802); details: Compound concentration 1000.0 nM
[5] = biological target: Death-associated protein kinase 2 (Homo sapiens) (UniProt Q9UIK4); details: Compound concentration 1000.0 nM
[6] = biological target: Discoidin domain-containing receptor 2 (Homo sapiens) (UniProt Q16832); details: Compound concentration 1000.0 nM
[7] = biological target: Ephrin type-A receptor 2 (Homo sapiens) (UniProt P29317); details: Compound concentration 1000.0 nM
[8] = test system: Receptor-type tyrosine-protein kinase FLT3 (Homo sapiens), P36888 [D835V]; details: Compound concentration 1000.0 nM
[9] = biological target: Cyclin-G-associated kinase (Homo sapiens) (UniProt O14976); details: Compound concentration 1000.0 nM
[10] = biological target: Serine/threonine-protein kinase ICK (Homo sapiens) (UniProt Q9UPZ9); details: Compound concentration 1000.0 nM
[11] = biological target: Insulin receptor-related protein (Homo sapiens) (UniProt P14616); details: Compound concentration 1000.0 nM
[12] = biological target: Mitogen-activated protein kinase 8 (Homo sapiens) (UniProt P45983); details: Compound concentration 1000.0 nM
[13] = test system: Mast/stem cell growth factor receptor Kit (Homo sapiens), P10721 [L576P]; details: Compound concentration 1000.0 nM
[14] = biological target: Serine/threonine-protein kinase STK11 (Homo sapiens) (UniProt Q15831); details: Compound concentration 1000.0 nM
[15] = biological target: Mitogen-activated protein kinase kinase kinase 13 (Homo sapiens) (UniProt O43283); details: Compound concentration 1000.0 nM
[16] = biological target: Mitogen-activated protein kinase kinase kinase kinase 4 (Homo sapiens) (UniProt O95819); details: Compound concentration 1000.0 nM
[17] = biological target: Mitogen-activated protein kinase kinase kinase kinase 5 (Homo sapiens) (UniProt Q9Y4K4); details: Compound concentration 1000.0 nM
[18] = biological target: Dual specificity mitogen-activated protein kinase kinase 2 (Homo sapiens) (UniProt P36507); details: Compound concentration 1000.0 nM
[19] = biological target: MAP kinase-interacting serine/threonine-protein kinase 2 (Homo sapiens) (UniProt Q9HBH9); details: Compound concentration 1000.0 nM
[20] = biological target: Serine/threonine-protein kinase 3 (Homo sapiens) (UniProt Q13188); details: Compound concentration 1000.0 nM
[21] = biological target: Myosin light chain kinase family member 4 (Homo sapiens) (UniProt Q86YV6); details: Compound concentration 1000.0 nM
[22] = biological target: Serine/threonine-protein kinase Nek11 (Homo sapiens) (UniProt Q8NG66); details: Compound concentration 1000.0 nM
[23] = biological target: Serine/threonine-protein kinase PAK 1 (Homo sapiens) (UniProt Q13153); details: Compound concentration 1000.0 nM
[24] = biological target: Serine/threonine-protein kinase PAK 2 (Homo sapiens) (UniProt Q13177); details: Compound concentration 1000.0 nM
[25] = biological target: Serine/threonine-protein kinase PAK 4 (Homo sapiens) (UniProt O96013); details: Compound concentration 1000.0 nM
[26] = biological target: Cyclin-dependent kinase 2 homolog (Plasmodium falciparum (isolate 3D7)) (UniProt P61075); details: Compound concentration 1000.0 nM
[27] = test system: Phosphatidylinositol 4,5-bisphosphate 3-kinase catalytic subunit alpha isoform (Homo sapiens), P42336 [I800L]; details: Compound concentration 1000.0 nM
[28] = biological target: Serine/threonine-protein kinase D1 (Homo sapiens) (UniProt Q15139); details: Compound concentration 1000.0 nM
[29] = biological target: Proto-oncogene tyrosine-protein kinase receptor Ret (Homo sapiens) (UniProt P07949); details: Compound concentration 1000.0 nM
[30] = biological target: Ribosomal protein S6 kinase alpha-4 (Homo sapiens) (UniProt O75676); details: Compound concentration 1000.0 nM
[31] = biological target: Ribosomal protein S6 kinase alpha-2 (Homo sapiens) (UniProt Q15349); details: Compound concentration 1000.0 nM
[32] = biological target: Ribosomal protein S6 kinase beta-1 (Homo sapiens) (UniProt P23443); details: Compound concentration 1000.0 nM
[33] = biological target: Serine/threonine-protein kinase SIK2 (Homo sapiens) (UniProt Q9H0K1); details: Compound concentration 1000.0 nM
[34] = biological target: SNF-related serine/threonine-protein kinase (Homo sapiens) (UniProt Q9NRH2); details: Compound concentration 1000.0 nM
[35] = biological target: SRSF protein kinase 1 (Homo sapiens) (UniProt Q96SB4); details: Compound concentration 1000.0 nM
[36] = biological target: Serine/threonine-protein kinase 16 (Homo sapiens) (UniProt O75716); details: Compound concentration 1000.0 nM
[37] = biological target: Serine/threonine-protein kinase 36 (Homo sapiens) (UniProt Q9NRP7); details: Compound concentration 1000.0 nM
[38] = biological target: STE20/SPS1-related proline-alanine-rich protein kinase (Homo sapiens) (UniProt Q9UEW8); details: Compound concentration 1000.0 nM
[39] = biological target: Serine/threonine-protein kinase WNK2 (Homo sapiens) (UniProt Q9Y3S1); details: Compound concentration 1000.0 nM
[40] = biological target: 5-hydroxytryptamine receptor 1E (Homo sapiens) (UniProt P28566); details: Compound concentration 10.0 uM
[41] = biological target: Sodium-dependent serotonin transporter (Homo sapiens) (UniProt P31645); details: Compound concentration 10.0 uM
[42] = biological target: Beta-1 adrenergic receptor (Homo sapiens) (UniProt P08588); details: Compound concentration 10.0 uM
[43] = biological target: Beta-2 adrenergic receptor (Homo sapiens) (UniProt P07550); details: Compound concentration 10.0 uM
[44] = biological target: Alpha-1D adrenergic receptor (Homo sapiens) (UniProt P25100); details: Compound concentration 10.0 uM
[45] = biological target: Sigma intracellular receptor 2 (Homo sapiens) (UniProt Q5BJF2); details: Compound concentration 10.0 uM
Chain of Sigma intracellular receptor 2 (Homo sapiens) (Q5BJF2 whole entry): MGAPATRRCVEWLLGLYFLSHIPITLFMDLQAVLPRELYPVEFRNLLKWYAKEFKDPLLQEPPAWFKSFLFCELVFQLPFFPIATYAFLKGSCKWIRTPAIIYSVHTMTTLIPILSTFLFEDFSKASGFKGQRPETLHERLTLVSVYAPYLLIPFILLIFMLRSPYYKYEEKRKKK

Chain of Mitogen-activated protein kinase 8 (Homo sapiens) (P45983 whole entry): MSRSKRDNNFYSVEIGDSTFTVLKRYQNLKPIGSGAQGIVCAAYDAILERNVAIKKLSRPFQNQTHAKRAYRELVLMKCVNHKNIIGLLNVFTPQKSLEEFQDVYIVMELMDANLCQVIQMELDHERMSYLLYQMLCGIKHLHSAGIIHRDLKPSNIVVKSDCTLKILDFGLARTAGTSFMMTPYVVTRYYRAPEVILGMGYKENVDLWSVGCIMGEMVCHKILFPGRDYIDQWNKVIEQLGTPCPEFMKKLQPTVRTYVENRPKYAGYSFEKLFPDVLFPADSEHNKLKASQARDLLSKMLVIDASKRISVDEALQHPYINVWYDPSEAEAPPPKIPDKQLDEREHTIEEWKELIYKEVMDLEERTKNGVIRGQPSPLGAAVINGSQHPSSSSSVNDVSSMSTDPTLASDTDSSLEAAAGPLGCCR
Chain of Mitogen-activated protein kinase kinase kinase kinase 5 (Homo sapiens) (Q9Y4K4 whole entry, looked up): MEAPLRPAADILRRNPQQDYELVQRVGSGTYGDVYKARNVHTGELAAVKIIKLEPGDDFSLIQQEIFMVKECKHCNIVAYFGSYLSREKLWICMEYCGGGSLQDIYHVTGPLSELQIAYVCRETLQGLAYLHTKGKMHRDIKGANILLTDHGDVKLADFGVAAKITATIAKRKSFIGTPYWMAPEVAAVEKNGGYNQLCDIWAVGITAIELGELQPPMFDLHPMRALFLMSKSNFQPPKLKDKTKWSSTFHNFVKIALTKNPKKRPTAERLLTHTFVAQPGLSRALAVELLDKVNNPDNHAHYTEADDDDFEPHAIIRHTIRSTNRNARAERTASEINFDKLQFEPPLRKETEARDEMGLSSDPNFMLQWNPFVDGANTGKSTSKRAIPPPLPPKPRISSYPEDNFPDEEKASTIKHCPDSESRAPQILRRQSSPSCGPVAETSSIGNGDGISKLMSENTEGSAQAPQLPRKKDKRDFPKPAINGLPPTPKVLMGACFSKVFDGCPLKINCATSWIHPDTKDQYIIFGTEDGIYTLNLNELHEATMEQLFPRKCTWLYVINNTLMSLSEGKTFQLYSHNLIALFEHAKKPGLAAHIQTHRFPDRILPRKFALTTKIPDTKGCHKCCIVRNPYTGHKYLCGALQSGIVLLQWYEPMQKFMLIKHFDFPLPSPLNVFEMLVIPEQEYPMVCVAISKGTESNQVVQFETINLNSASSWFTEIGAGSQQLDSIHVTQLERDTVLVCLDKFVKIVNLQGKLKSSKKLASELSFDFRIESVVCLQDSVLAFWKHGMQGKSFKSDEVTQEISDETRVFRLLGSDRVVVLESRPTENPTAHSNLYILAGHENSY
Chain of Proto-oncogene tyrosine-protein kinase receptor Ret (Homo sapiens) (P07949 whole entry): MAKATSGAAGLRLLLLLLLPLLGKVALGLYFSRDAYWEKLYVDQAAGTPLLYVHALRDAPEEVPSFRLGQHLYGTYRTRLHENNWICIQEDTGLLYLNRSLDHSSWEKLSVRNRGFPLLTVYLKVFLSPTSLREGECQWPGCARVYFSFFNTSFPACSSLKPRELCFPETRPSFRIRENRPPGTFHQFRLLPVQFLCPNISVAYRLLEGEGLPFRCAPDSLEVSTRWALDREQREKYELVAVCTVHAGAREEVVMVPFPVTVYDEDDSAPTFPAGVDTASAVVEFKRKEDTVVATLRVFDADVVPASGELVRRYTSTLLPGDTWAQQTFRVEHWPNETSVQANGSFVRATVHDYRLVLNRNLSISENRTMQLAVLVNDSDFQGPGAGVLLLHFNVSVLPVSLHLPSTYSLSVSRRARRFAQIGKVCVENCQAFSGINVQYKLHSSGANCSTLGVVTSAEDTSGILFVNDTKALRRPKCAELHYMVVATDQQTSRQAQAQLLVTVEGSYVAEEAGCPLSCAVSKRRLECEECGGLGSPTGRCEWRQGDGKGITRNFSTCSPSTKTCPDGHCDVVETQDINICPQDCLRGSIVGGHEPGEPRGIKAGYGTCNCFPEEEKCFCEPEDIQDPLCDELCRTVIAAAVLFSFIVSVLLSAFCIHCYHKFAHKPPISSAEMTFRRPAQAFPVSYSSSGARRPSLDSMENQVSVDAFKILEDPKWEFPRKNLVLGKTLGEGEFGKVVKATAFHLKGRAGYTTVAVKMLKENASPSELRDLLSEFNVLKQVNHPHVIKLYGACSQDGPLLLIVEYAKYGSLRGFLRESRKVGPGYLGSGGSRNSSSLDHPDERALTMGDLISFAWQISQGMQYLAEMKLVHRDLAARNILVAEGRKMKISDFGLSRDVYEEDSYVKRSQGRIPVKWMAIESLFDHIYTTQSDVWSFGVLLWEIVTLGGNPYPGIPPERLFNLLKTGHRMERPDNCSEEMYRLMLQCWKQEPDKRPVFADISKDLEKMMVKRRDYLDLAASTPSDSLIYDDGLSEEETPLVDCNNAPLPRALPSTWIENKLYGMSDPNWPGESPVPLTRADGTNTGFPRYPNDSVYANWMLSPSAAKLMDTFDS
Chain of Serine/threonine-protein kinase 16 (Homo sapiens) (O75716 whole entry): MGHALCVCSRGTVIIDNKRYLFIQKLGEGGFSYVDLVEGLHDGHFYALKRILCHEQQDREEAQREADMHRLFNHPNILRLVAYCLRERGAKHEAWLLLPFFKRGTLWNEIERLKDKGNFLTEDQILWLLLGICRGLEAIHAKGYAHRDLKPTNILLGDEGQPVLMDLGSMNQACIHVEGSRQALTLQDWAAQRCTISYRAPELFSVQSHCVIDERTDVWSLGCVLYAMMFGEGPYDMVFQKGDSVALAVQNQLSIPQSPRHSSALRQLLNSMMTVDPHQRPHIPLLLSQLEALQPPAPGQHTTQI
Chain of Serine/threonine-protein kinase D1 (Homo sapiens) (Q15139 whole entry): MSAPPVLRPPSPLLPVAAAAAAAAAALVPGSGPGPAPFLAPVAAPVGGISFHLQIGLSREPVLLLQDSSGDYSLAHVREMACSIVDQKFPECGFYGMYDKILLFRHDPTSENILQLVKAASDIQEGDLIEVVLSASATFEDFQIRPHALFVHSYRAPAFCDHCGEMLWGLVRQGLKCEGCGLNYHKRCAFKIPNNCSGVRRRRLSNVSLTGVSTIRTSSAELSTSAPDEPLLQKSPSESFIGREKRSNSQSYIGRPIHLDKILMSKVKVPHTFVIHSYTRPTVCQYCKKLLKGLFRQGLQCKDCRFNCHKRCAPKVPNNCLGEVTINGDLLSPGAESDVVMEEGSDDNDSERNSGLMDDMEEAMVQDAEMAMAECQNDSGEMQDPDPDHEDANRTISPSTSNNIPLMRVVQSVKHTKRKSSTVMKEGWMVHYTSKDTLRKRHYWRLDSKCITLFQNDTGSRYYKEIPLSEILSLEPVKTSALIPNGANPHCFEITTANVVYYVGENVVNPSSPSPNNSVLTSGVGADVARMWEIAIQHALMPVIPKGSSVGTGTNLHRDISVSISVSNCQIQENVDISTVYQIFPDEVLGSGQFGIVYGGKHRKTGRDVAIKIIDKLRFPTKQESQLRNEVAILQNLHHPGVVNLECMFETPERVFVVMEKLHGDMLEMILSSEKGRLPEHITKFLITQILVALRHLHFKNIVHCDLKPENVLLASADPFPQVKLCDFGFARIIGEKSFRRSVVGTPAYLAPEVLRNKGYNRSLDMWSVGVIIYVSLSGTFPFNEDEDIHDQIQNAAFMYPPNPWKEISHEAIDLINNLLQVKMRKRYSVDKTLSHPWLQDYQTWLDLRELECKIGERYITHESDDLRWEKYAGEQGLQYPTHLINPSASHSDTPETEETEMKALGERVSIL
Chain of Serine/threonine-protein kinase Nek11 (Homo sapiens) (Q8NG66 whole entry): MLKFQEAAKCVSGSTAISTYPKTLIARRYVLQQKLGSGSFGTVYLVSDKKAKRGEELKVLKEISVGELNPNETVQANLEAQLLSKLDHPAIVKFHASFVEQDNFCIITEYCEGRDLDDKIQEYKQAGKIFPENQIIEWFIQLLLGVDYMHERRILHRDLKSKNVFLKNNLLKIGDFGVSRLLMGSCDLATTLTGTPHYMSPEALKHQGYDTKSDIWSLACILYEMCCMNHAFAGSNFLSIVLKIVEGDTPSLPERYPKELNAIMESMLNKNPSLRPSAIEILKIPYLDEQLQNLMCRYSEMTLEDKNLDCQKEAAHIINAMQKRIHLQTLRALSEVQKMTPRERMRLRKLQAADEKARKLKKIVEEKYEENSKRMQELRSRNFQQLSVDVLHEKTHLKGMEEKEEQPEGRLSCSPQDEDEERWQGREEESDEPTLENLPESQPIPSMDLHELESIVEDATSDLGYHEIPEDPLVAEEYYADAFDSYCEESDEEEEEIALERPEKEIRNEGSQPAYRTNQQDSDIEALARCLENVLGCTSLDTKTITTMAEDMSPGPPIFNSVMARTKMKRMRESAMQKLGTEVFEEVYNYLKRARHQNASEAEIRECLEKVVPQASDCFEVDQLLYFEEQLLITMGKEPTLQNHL
Chain of Serine/threonine-protein kinase PAK 1 (Homo sapiens) (Q13153 whole entry): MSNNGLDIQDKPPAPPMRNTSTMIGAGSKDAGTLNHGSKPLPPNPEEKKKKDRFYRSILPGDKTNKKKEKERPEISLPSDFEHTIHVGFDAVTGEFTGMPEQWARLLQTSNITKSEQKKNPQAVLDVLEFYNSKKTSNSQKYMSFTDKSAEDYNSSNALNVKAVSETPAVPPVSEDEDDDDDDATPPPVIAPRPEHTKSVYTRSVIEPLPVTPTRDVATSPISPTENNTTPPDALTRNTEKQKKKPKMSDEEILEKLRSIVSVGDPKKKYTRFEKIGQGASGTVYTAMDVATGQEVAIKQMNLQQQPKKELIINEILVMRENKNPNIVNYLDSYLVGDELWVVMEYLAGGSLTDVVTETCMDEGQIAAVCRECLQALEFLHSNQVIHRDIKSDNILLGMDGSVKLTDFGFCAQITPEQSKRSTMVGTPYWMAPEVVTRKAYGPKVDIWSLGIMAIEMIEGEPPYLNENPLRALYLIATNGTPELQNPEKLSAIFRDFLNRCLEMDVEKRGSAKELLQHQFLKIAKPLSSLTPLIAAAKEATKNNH

N#Cc1ccc(Nc2ccc3[nH]c(=O)[nH]c3c2)c(Cl)c1
inactive: residual activity [1] 100% | residual activity [2] 90% | residual activity [3] 86% | residual activity [4] 91% | residual activity [5] 92% | residual activity [6] 100% | residual activity [7] 84% | residual activity [8] 100% | residual activity [9] 100% | residual activity [10] 97% | residual activity [11] 100% | residual activity [12] 98% | residual activity [13] 89% | residual activity [14] 100% | residual activity [15] 100% | residual activity [16] 77% | residual activity [17] 77% | residual activity [18] 93% | residual activity [19] 100% | residual activity [20] 100% | residual activity [21] 100% | residual activity [22] 100% | residual activity [23] 85% | residual activity [24] 79% | residual activity [25] 92% | residual activity [26] 100% | residual activity [27] 77% | residual activity [28] 82% | residual activity [29] 97% | residual activity [30] 70% | residual activity [31] 100% | residual activity [32] 100% | residual activity [33] 100% | residual activity [34] 100% | residual activity [35] 95% | residual activity [36] 91% | residual activity [37] 100% | residual activity [38] 100% | residual activity [39] 100% | inhibition [40] 12.6% | inhibition [41] 21.1% | inhibition [42] 4.98% | inhibition [43] -0.51% | inhibition [44] -5.71% | inhibition [45] -4.12%

O=C1CCc2cc(Nc3cc(OC4CCOCC4)c([N+](=O)[O-])cc3Cl)ccc2N1
inactive: residual activity [1] 100% | residual activity [2] 84% | residual activity [3] 93% | residual activity [4] 90% | residual activity [5] 79% | residual activity [6] 100% | residual activity [7] 75% | residual activity [8] 70% | residual activity [9] 100% | residual activity [10] 100% | residual activity [11] 100% | residual activity [12] 91% | residual activity [13] 100% | residual activity [14] 100% | residual activity [15] 91% | residual activity [16] 100% | residual activity [17] 87% | residual activity [18] 73% | residual activity [19] 98% | residual activity [20] 100% | residual activity [21] 96% | residual activity [22] 100% | residual activity [23] 88% | residual activity [24] 96% | residual activity [25] 100% | residual activity [26] 100% | residual activity [27] 63% | residual activity [28] 87% | residual activity [29] 89% | residual activity [30] 65% | residual activity [31] 92% | residual activity [32] 100% | residual activity [33] 100% | residual activity [34] 100% | residual activity [35] 73% | residual activity [36] 93% | residual activity [37] 96% | residual activity [38] 100% | residual activity [39] 100% | inhibition [40] 16.5% | inhibition [41] 23.5% | inhibition [42] 3.3% | inhibition [43] -1.73% | inhibition [44] 3.49% | inhibition [45] 27.1%
